Data set [1] deals with ovariectomized C57BL/6 mice. Nature of the data set: stroke model, transient middle cerebral artery occlusion (tMCAo).
For the next data set, the system named is LRRC54 gene. Nature of the data set: LRRC54 (non-genomic gene) mRNA expression, qPCR. As to conditions: for LRRC54 (non-genomic gene) mRNA expression, in words: MCF-7 cells, 1 μM PaPE or 10 nM E2 for 4 h where stated, versus vehicle, E2 or compound 2. For orientation: Quantitative PCR measures a nucleic acid by following its amplification.
Data set [2] deals with MCF-7 cells. The data set can be described thus: Seahorse cell metabolic phenotype assays in MCF-7 cells. Format: cell-based, human. As to conditions: 24 hours; listed as PaPE-1.
Data set [3] has as its system ERα knock-out (ERKO) C57BL/6 mice. The data set can be described thus: effects in ERα knock-out (ERKO) mice. Format: in vivo. The settings on record: 3 weeks; listed as PaPE-1. The procedure:
FIG. 13. Effects of PaPE-1 require ERα. […] Animals were on normal chow diet. Change in body weight was monitored. (B) Uterus weights of animals from (A) at the end of 3 weeks of vehicle (Veh) or ligand treatment. (C) Triglyceride levels in the blood of animals from (A) after 3 weeks of ligand exposure.
Studies used wild type and ERα knockout mice in C57BL/6 background. All experiments involving animals were conducted in accordance with National Institutes of Health standards for the use and care of animals, with protocols approved by the University of Illinois at Urbana-Champaign and the University of Texas Southwestern Medical Center. Wild-type C57BL/6 mice were purchased from Jackson Laboratories/National Cancer Institute. ERα knockout mice with complete excision of ERα and wild type littermates were obtained from Taconic and were used as described previously in Dupont et al., Development, 127, 4277-4291, […], and Hewitt et al. FASEB J., 24, 4660-4667, 2010.

The test system of another data set is eNOS. Nature of the data set: eNOS activation in primary endothelial cells (14C-L-arginine to 14C-L-citrulline). As to conditions: 15 min; 10 nM ligand (FIG. 9E). Format: cell-based, bovine.
The target of another data set is T1, ERα-SRC3 interaction (Homo sapiens, UniProt P03372).
T1 construct: endogenous in cells; host or cells: MCF-7
T1 sequence (P03372 1-595): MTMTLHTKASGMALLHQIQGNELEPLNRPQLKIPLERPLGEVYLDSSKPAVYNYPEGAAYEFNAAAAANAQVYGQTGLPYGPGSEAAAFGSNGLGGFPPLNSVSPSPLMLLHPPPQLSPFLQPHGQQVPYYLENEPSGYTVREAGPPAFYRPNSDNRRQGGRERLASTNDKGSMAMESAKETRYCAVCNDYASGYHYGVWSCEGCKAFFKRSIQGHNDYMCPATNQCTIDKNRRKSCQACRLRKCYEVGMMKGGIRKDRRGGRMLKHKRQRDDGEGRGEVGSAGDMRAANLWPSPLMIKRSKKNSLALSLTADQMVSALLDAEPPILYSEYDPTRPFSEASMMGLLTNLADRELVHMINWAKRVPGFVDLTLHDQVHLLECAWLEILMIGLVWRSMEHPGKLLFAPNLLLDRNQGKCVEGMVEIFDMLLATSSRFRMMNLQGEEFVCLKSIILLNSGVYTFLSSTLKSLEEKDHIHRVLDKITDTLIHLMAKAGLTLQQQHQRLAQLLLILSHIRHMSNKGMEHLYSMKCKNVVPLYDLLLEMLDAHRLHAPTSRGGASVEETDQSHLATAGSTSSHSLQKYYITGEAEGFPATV
Nature of the data set: co-immunoprecipitation of ERα and SRC3 in MCF-7 cells. The format is cell-based. As to conditions: 10 nM E2 or 1 μM PaPE-1, 1 h. An excerpt:
FIG. 10. Estrogen receptor and coactivator binding and interaction assays with ligands and ligand dissociation rates. […] After ligand treatment, cell lysates were immunoprecipitated with antibody to SRC3 or control IgG, and immunoprecipitates were separated on SDS PAGE gels and blotted for ERα using anti-ERα antibody. […] For details, see methods below.
Western blot analysis used specific antibodies for ERα (HC-20, Santa Cruz); ERK2 (D-2, Santa Cruz); and pS^6, pS6K, pmTOR, pRAPTOR, pRICTOR, pMAPK (Cell Signaling). Coimmunoprecipitation assays used antibodies for SRC3 (Santa Cruz, C-20) and ERα (Santa Cruz, F10).

The nature of data set [4]: pharmacokinetics after SC injection in ovariectomized mice. The format is in vivo. As to conditions: female, C57BL/6, mouse, serum, 100 ug, subcutaneous injection. The procedure: For short-term studies, ovariectomized C57BL/6 mice were injected SC with 100 μg of PaPE-1 in 100 μl DMSO. Three mice were sacrificed at each time point, and 400 μl of blood was obtained from the abdominal aorta. Samples were centrifuged at 2000 g for 10 min, and serum was collected. A 50 μl portion of each sample was submitted to the Metabolomics Center at the University of Illinois for analysis. For longer-term studies, ovariectomized C57BL/6 mice were implanted SC with a pellet fabricated with 8 mg PaPE-1 and 12 mg cholesterol. Blood samples (30 μl) were collected by tail snipping every week until the third week of treatment. Samples were centrifuged at 2000 g for 10 min and serum was collected. Serum (10 μl) was mixed with 40 μl of PBS and submitted to the Metabolomics Center for analysis. For analysis, a mass standard of PaPE-1 (labeled with three deuterium atoms) was added to each sample before analysis by liquid chromatography-mass spectrometry using the 5500 QTrap with Agilent 1200 HPLC.

Data set [5] deals with MCF-7 cells. Nature of the data set: MCF-7 cell proliferation, WST-1 assay. The format is cell-based, human. As to conditions: 6 days. The procedure: Cells were seeded at 1000 cells/well in 96-well plates.
(In general: Formazan colour is commonly taken as a measure of viable cells.)

Data set [6] concerns ovariectomized C57BL/6 mice. As to conditions: mouse, in vivo.
The target in a further data set is T2, ERα and RAPTOR (Homo sapiens, UniProt P03372).
T2 construct: endogenous in cells; host or cells: MCF-7
T2 sequence (P03372 1-595): T1 sequence (P03372 1-595)
The data set can be described thus: proximity ligation assay in MCF-7 cells. As to conditions: 10 nM E2 or 1 μM PaPE-1, 15 min. The format is cell-based. The procedure:
Next day, the proximity ligation assay (PLA) was performed using the Duolink In Situ kit (Olink Bioscience) according to the manufacturer's instructions, as described in Zhao et. al., Endocrinology, 154, 1349-1360, 2013. Briefly, overnight incubation with primary antibodies was followed by hybridization with two PLA probes at 37° C. for 1 h, and then by ligation for 15 min and amplification for 90 min at 37° C. A coverslip was mounted on each slide and image acquisition and analysis conducted. Samples were imaged using a 63×/1.4 Oil DIC M27 objective in a Zeiss LSM 700 or 710 laser scanning confocal microscope. Images were obtained in a sequential manner using a 488 Ar (10 mW) laser line for PLA signal. The individual channels for DAPI and PLA signal were obtained using a sequential scanning mode to prevent bleed-through of the excitation signal. Laser power, gain and offset were kept constant across the samples and scanned in a high resolution format of 512×512 or 1024×1024 pixels with 2/4 frames averaging. Further quantification of the images used Fiji software (http://fiji.sc/wiki/index.php/Fiji). Briefly, images were converted to 8 bit for segmentation for each channel, and images were background subtracted using a rolling-ball method, with a pixel size of 100 and segmented using the DAPI channel.

The values that follow come from US10703698B2, “Compounds which activate estrogen receptors and compositions and methods of using the same” (The Board of Trustees of the University of Illinois, priority 2016, dated 2020).

“Also recorded” adds a separate entry of the source.

Broadly, the half-life is the time needed for the level to fall by half in the phase considered.

Take `Cc1cc(-c2ccc3c(c2)CCC3O)cc(C)c1O` (racemic) [Compound 2, 5-(4-hydroxy-3,5-dimethylphenyl)-2,3-dihydro-1H-inden-1-ol]: in data set [1] (3 and 7 days), the “severity of CNS injury on MRI” value was “decreased compared with control treatment”. The infarct volumes result in data set [1] (3d and 7d post-tMCAo, compared with vehicle) was “significantly reduced infarct volumes”. For the same compound, the “degree of swelling associated with the injury” value in data set [1] (3 days post-stroke) is “attenuated”. Besides, in data set [1] (3 days post-stroke), the “reduction of leukocytes infiltrated in the brain” value is listed as 93%. For the same compound, the “rotorod functional recovery, of baseline” value was 85% in data set [1] (6d post-tMCAo) and 82% in data set [1] (13d post-tMCAo). Moreover, in data set [1] (mouse, in vivo), the “rotorod function post-stroke, in words” value is listed as “improved function post-stroke”. Besides, the “LRRC54 activation, fold higher level than E2” value in the data set on LRRC54 gene (FIG. 14) is given as 1.9 fold. The “LRRC54 (non-genomic gene) mRNA expression, in words” value in the data set on LRRC54 gene is “equivalent activities”; with LRRC54 gene (listed as PaPE-1), “LRRC54 stimulation”. In the data set with MCF-7 cells [2], the “OA-induced glycolytic and aerobic respiration with PaPE-1” value is on record as “reversed by PaPE-1 treatment; also recorded: normalized by adding PaPE-1”. For the same compound, in [3], the “ability to diminish body weight gain after ovariectomy in ERKO mice” value is “lost in the ERKO mice; also recorded: require ERα”. Also, the “eNOS / NOS activity” value with eNOS is listed as “comparable response”. Besides, at ERα-SRC3 interaction, the “coimmunoprecipitation of ERα with SRC3” value is reported as “no coimmunoprecipitated complexes were observed”. Besides, the half-life in data set [4] was about 1 h. Moreover, the “proliferation of MCF-7 cells” value in the data set on MCF-7 cells [5] is on record as “did not stimulate proliferation”. Further, the uterine wet weight entry in data set [6] is reported as “no effect”. The “interaction of ERα with RAPTOR” value on ERα and RAPTOR is “to a greater extent; also recorded: induces interaction between ERα and Raptor”.
